According to patent US9611485B2, “Polynucleotide and polypeptide sequences associated with herbicide tolerance” (priority 2010, dated 2017):

Assays:
[1] = tested on: tobacco T1 seeds and wild type seeds; experiment: Germination of tobacco T1 seeds on Gelrite plates containing saflufenacil; type: in vivo
Protocol: Unsprayed clones of the transgenic tobacco plants described above were grown in a greenhouse until flowering and were allowed to self pollinate. Seeds were harvested and used for further experiments. Transgene insertion copy number was not determined for these plants, but for single copy plants the seeds would be expected to segregate 1homozygous:2hemizygous:1null for the transgene.
T1 seeds from multiple transgenic events carrying the resistant and susceptible alleles, and wild type seeds, were germinated on 1.5% Gelrite (no nutrients or minerals) plates and kept in a growth chamber at 26° C. under a 16 hr light regime. Plate media contained saflufenacil at concentrations down to 0.45 parts per billion (ppb). […] All seed germinated and grew normally on Gelrite plates lacking saflufenacil.

[2] = tested on: Soybean (cv. Jack) T0 plants; experiment: Saflufenacil foliar spray of transgenic T0 soybean plants, visual injury; type: in vivo, Glycine max; details: 3 g/ha foliar spray, 7 days after treatment, 0=no effect, 100=dead plant
Protocol: Soybean was transformed essentially as described in Li et al. (2007) Plant Mol Biol 65:329-341. Soybean (cv. Jack) embryogenic cultures were transformed by particle bombardment with plant expression vectors using a strong constitutive promoter to control the GM ABCT1 SUS (susceptible allele, SEQ ID NO:125) or GM ABCT1 TOL (resistant allele, SEQ ID NO: 124) genes. Stable transgenic events were tested for presence of the transgene by PCR, but no confirmation of expression was performed. Three clonal plants were produced from each transgenic event.
These T0 plants were grown to the V2 to V8 growth stage and then sprayed with saflufenacil at a rate of 3 g/ha. All treatments were applied in a spray volume of 280 L/ha. The spray mixture contained acetone, water, glycerin and surfactant. Treated plants were compared to untreated plants of similar genetic background and evaluated for herbicide injury at seven days after treatment. Visual injury was on a scale of 0 to 100% injury (0=no effect to 100=dead plant). Plants are also visually evaluated for agronomic effects such as interveinal and veinal chlorosis, reddening, leaf malformation, necrosis, apical withering/death/regrowth, and whole plant height.

[3] = tested on: tobacco T1 seedlings and wild type; experiment: Saflufenacil soil drench of tobacco T1 seedlings in pots; type: in vivo; details: three days after treatment
Description: T1 seeds were sown in four inch pots containing soil and allowed to germinate for five days. At this point, with cotyledons visible above the soil, pots were drenched with 100 mls saflufenacil in water at 0.45 ppb. The solution was applied to soil, avoiding direct contact with plant cotyledons.

[4] = tested on: Tobacco (cv. Petite Havana) T0 plants; experiment: Saflufenacil foliar spray of transgenic T0 tobacco plants, visual injury; type: in vivo; details: 12.5 g/ha spray; for mean visual injury score: tobacco T0 plants carrying the susceptible allele
Protocol: Tobacco (cv. Petite Havana) was transformed by particle bombardment with plant expression vectors using a strong constitutive promoter to control the GM ABCT1 SUS (susceptible allele, SEQ ID NO: 125) or GM ABCT1 RES (resistant allele, SEQ ID NO: 124) genes using the following protocol: • 1) Weigh 1 mg 0.6 micron gold powder (for 8 shots). Add 1 ml 100% ethanol Sonicate 2 min. Centrifuge at 13,000 rpm×5 sec. Remove Supernatant. Repeat 3 times. • 2) Add 1 ml sterile double-deionized water. Sonicate 2 min. Centrifuge at 13,000 rpm×5 sec. Remove Supernatant. Repeat 2 times. • 3) Add 321 μl sterile water. Vortex and sonicate 2 min. • 4) Add 4 μl of DNA (1 μg/μl concentration) and vortex briefly. • 5) Add 100 μl of 5M CaCl2 and 80 μl of 0.1M Spermidine (14 μl of Spermidine+985.6 μl water prepared freshly). Mix with finger and vortex 2 sec. • 6) Incubate on ice for 1 min. Spin down at 13,000 rpm for 2 sec and remove supernatant. • 7) Add 500 μl of 100% ethanol. Pipette up and down a few times to wash. (It is important to break all big aggregates at this stage). Vortex 2 sec. Spin down at 13,000 rpm for 2 sec and remove supernatant. • 8) Re-suspend in 85 μl of 100% ethanol. Keep on ice. Vortex solution before spreading 10 μl of DNA prep on flying disk. (Sterilize in 100% ethanol for 5-10 min and air dry, also sterilize and air dry 1100 psi rupture disk). • 9) Place tobacco leaf (cv. Petit Havana) abaxial side up in the center of a petri plate containing MS01 medium (MS+B5 vitamins (Phytotechnology M519), Sucrose 30 g/l, agar 8 g/l, BA 2 mg/L, NAA 0.05 mg/L). • 10) Bombard with 28 mm Hg vacuum, position plate at 9 cm (2nd position from bottom), 1100 psi rupture disk. After bombardment, invert leaves so bombarded side and petioles are in contact with medium. • 11) Maintain leaves under 16 hrs/day dim light (<5 μEinstein) for 2-3 days. • 12) Cut leaves into small pieces (0.5 cm×0.5 cm) in MSB-Co (MS+Vit, Glucose 10 g/L, BA 50 mg/L, pH5.2), then blot dry on sterile filter paper and place with bombarded side in contact with the MS01 medium containing hygromycin 25 mg/L under 16 hrs/day light (80-120 μEinstein). When shoots appear, cut and place directly in selection media. • 13) Until shoots appear, change selection medium every 2 weeks. • 14) When entire plantlets are formed (1-2 cm high), leaves are cut into approx. 1-2 mm segments and re-cultured on MS01 medium containing hygromycin 25 mg/L and 8 g/L agar. Subculture to fresh medium every 3 weeks. When new shoots appear, isolate single shoots and transfer onto ½ MS media (M519 2.22 g/L, sucrose 15 g/L, agar 6 g/L).
Stable transgenic events were tested for presence of the transgene by PCR, and transcription of the genes was confirmed by qRT-PCR. Three clonal plants were produced from each transgenic event; two plants from each event were used for the spray experiment.
Plants were grown until 3 to 5 expanded true leaves were present and then sprayed with saflufenacil at a rate of 12.5 g/ha. All treatments were applied in a spray volume of 140 L/ha. Ammonium sulfate was included at 1% w/v. Treated plants were compared to untreated plants of similar genetic background and evaluated for herbicide injury at seven and seventeen days after treatment. Visual injury was on a scale of 0 to 100% injury (0=no effect to 100=dead plant).

For `CC(C)N(C)S(=O)(=O)NC(=O)c1cc(-n2c(=O)cc(C(F)(F)F)n(C)c2=O)c(F)cc1Cl` [saflufenacil], the “difference between transgenic seed with either GM ABCT1 allele and wild type seed” value ([1]; Gelrite plates containing saflufenacil down to 0.45 ppb) was “No visible difference”, the “seed germination and growth” value ([1]; plate media at 0.91 ppb and 0.45 ppb, transgenic T1 and wild type tobacco seed) was “seeds germinated but were bleached and failed to grow” and the seed germination ([1]; plate media at concentrations above 0.91 ppb, transgenic T1 and wild type tobacco seed) was “no germination was observed”. The mean visual injury ([2]; soybean cv. Jack T0 plants carrying the resistant allele (GM ABCT1 TOL)) was 72%, the “mean visual injury score” value ([2]; soybean cv. Jack T0 plants carrying the susceptible allele (GM ABCT1 SUS)) was 59% and the mean visual injury ([2]; wild type soy plants) was 84%. The seedling condition ([3]; 100 mls at 0.45 ppb drenched to soil five days after sowing) was “all seedlings were severely bleached and appeared dead”, the “differences between transgenic lines and wild type” value ([3]; 100 mls at 0.45 ppb soil drench) was “No visible differences” and the mean visual injury ([4]; tobacco T0 plants carrying the resistant allele, seven days after treatment) was 63%. The mean visual injury ([4]; tobacco T0 plants carrying the resistant allele, seventeen days after treatment) was 46%, the “mean visual injury score” value ([4]; seven days after treatment) was 77% and the “mean visual injury score” value ([4]; seventeen days after treatment) was 61%. It also gave a mean visual injury ([4]; transgenic control tobacco plants carrying an unrelated transgene, seven days after treatment) of 63% and a mean visual injury ([4]; transgenic control tobacco plants carrying an unrelated transgene, seventeen days after treatment) of 53%.
